Consider 1 compound from patent publication US20180065968A1, “NEW SUBSTITUTED TRIAZOLOPYRIMIDINES AS ANTI-MALARIAL AGENTS” (BOARD OF REGENTS OF THE UNIVERSITY OF TEXAS SYSTEM, priority 2015, published 2018).

Data set [1] deals with P. falciparum clinical isolates. As to the kind of experiment: Ex vivo schizont maturation assay, clinical isolates. The format is cell-based. The settings on record: Plasmodium falciparum; ex vivo schizont maturation, 35-56 hrs; isolates from Timika (Papua, Indonesia); read-out: P. falciparum clinical isolates IC50. As for the experimental part:
(§1) To assess comparative activity between P. falciparum and P. vivax strains compounds were tested in an ex vivo parasite assay using Plasmodium isolates from patients who visited clinics in Timika (Papua, Indonesia). Parasites in this region are resistant to standard anti-malarials such as chloroquine. P. vivax can not be cultivated in vitro so the ex vivo assay is the only method to evaluate drug sensitivity. Patients with parasitemia between 2000 and 80,000 ul^−1 were eligible for recruitment into the study. Blood was collected by venipuncture, host white blood cells were removed and packed infected red blood cells were used for the ex vivo studies. Drug susceptibility was measured as previously described (Russell et al., 2008, Antimicrobial Agents Chemother., 52, 1040-1045; Marfurt et al., 2011, Antimicrobial Agents Chemother., 55, 961-966; Marfurt et al., 2011, Antimicrobial Agents Chemother., 55, 4461-4464). Briefly two hundred μl of a 2% hematocrit blood mixture, consisting of RPMI 1640 medium plus 10% AB+ human serum (P. falciparum) or McCoy's 5A medium plus 20% AB+ human serum (P. vivax) was added to each well of pre-dosed drug plates containing serial 2-fold dilutions of the anti-malarial compound. A candle jar was used to mature parasites at 37° C. for 35-56 hrs. […] Thick blood films made from each well were stained with 5% Giemsa for 30 min and examined microscopically. The number of schizonts per 200 asexual stage parasites was determined and normalized to the control well. Data were analyzed by nonlinear regression (WinNonLn 4.1) to determine the IC50 using the inhibitory sigmoid Emax model.
(§2) Drug plate quality was assured by running schizont maturation assays (two independent experiments) with the chloroquine-resistant strain K1 and the chloroquine-sensitive strain FC27. For microscopy slide reading QC, two randomly selected drugs per isolate were read by a second microscopist. […] If necessary, discrepant results were resolved by a third reading by an expert microscopist.

The subject of data set [2] is P. vivax clinical isolates. Described as above. The format is cell-based. The protocol: as §1, §2
The nature of data set [3]: Aqueous kinetic solubility by nephelometry. The format is physicochemical. The following applies: aqueous buffer, kinetic from dmso stock, pH 6.5 phosphate buffer, 1% DMSO, read-out: Kinetic Solubility pH6.5. As for the experimental part: Aqueous solubility was estimated by nephelometry. Concentrated stock solutions were prepared in DMSO and diluted into either pH 6.5 phosphate buffer or 0.01 M HCl (approximately pH 2.0), with the final DMSO concentration being 1%. Samples were then analyzed by nephelometry to determine the solubility range as described previously (Bevan, et al., 2000, Anal. Chem., 72, 1781-1787).

Another data set has as its system P. falciparum 3D7. As to the kind of experiment: P. falciparum 3D7 growth inhibition assay (SYBR green). The format is cell-based. The settings on record: Plasmodium falciparum, 72 h incubation, 50% growth inhibition, read-out: Pf 3D7 EC50. The protocol:
The ability of triazolopyrimidine derivatives according to the invention to kill P. falciparum parasites and/or to inhibit its proliferation is assayed through their ability to inhibit Plasmodium falciparum growth. The growth inhibition assay is as follows: P. falciparum 3D7 cells were grown in Gibco-Invitrogen RPMI-1640 supplemented with 2% (w/v) red blood cells (RBCs) and either 20% human type A+ plasma (Desjardins et al., 1979, Antimicrob Agents Chemother. 16, 710-718) or with Gibco-Invitrogen 0.5% Albumax I (Coteron et al., 2011, J. Med. Chem., 54, 5540-5561). Serial dilutions of compound stocks were prepared in 100% DMSO at 200× the final concentration, followed by generation of 20× stocks in media. Cell growth was monitored by the SYBR green method as described (Deng, et al., 2014. J. Med. Chem., 57, 5381-539). Parasites (0.19 ml of 0.5% parasitemia, 0.5% HCT) were plated into 96-well microtiter plates containing 10 μL compound or DMSO control (final DMSO concentration of 0.5%). Non-parasitized RBCs (0.5% HCT) were used as a control to determine background fluorescence. After 72 h of incubation parasitized RBCs were quantitated by the SYBR Green method. 2× SYBR Green I solution (20 μL) in 1× PBS was mixed with 20 μL parasites in 96-well plates, incubated for 20 min, and after which 160 μL of 1× PBS was added. Fluorescence was detected using a BD Biosciences Acurri C6 flow cytometer and events recorded within gates that encompassed all asexual growth stages of the P. falciparum intraerythrocytic life cycle. A minimum 50,000 total events were recorded per well. Background events determined from non-parasitized RBC controls were subtracted from final counts.

By IC50 is commonly meant the point on the concentration scale where inhibition reaches its midpoint. By kinetic solubility is commonly meant solubility judged after dilution from a stock solution rather than from solid. As usually defined, the EC50 is the concentration giving half of the maximal effect.

Where only a bound is given, the exact number is not on record here.

For the compound `Cc1cc(Nc2ccc(C(F)(F)F)nc2)n2nc(C(C)(F)F)nc2n1` [Compound (1), 2-(1,1-difluoroethyl)-5-methyl-N-(6-(trifluoromethyl)pyridin-3-yl)-[1,2,4]triazolo[1,5-a]pyrimidin-7-amine], the concentration for half-maximal inhibition (IC50) is 151 nM in data set [1] and 175 nM in data set [2] (Plasmodium vivax, ex vivo schizont maturation, 35-56 hrs, isolates from Timika (Papua, Indonesia), read-out: P. vivax clinical isolates IC50). In addition, the “comparative activity between P. falciparum and P. vivax” value in data set [2] (ex vivo parasite assay) was “equivalent activity on both P. falciparum and P. vivax”. Further, the solubility (kinetic) in data set [3] is greater than 100 µg/mL. The EC50 in the data set with P. falciparum 3D7 stood at 11 nM.
